Results published in ChEMBL document CHEMBL1201862, “PubChem BioAssay data set” (2004).
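Results reflect a 48-hour exposure of cells in 96-well plates to compound at five concentrations. Here, GI50 denotes the concentration required for 50% inhibition of growth.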 Calls of active or inactive are those of the source. Cut-off read from the data, not from the text of the source: active = GI50 up to about 1.1 µM and inactive = higher.

Columns and labels:
Test in all cases: NCI-60 cell line screen, 48 h
ACHN = tested on: ACHN
SN12C = tested on: SN12C
SF-268 = tested on: SF-268
HCC 2998 = tested on: HCC 2998
CAKI-1 = tested on: CAKI-1
HOP-62 = tested on: HOP-62
NCI/ADR-RES = tested on: NCI/ADR-RES
K562 = tested on: K562
UACC-62 = tested on: UACC-62
UACC-257 = tested on: UACC-257
NCI-H460 = tested on: NCI-H460
TK-10 = tested on: TK-10
RPMI-8226 = tested on: RPMI-8226
MDA-MB-231 = tested on: MDA-MB-231
Hs-578T = tested on: Hs-578T
A549 = tested on: A549
KM12 = tested on: KM12
NCI-H23 = tested on: NCI-H23
IGROV-1 = tested on: IGROV-1
MCF7 = tested on: MCF7
MOLT-4 = tested on: MOLT-4
HL-60 = tested on: HL-60
OVCAR-4 = tested on: OVCAR-4
T47D = tested on: T47D
UO-31 = tested on: UO-31
HCT-15 = tested on: HCT-15
HCT-116 = tested on: HCT-116
SF-539 = tested on: SF-539
SNB-19 = tested on: SNB-19
NCI-H226 = tested on: NCI-H226
MDA-N = tested on: MDA-N
OVCAR-8 = tested on: OVCAR-8
CCRF-CEM = tested on: CCRF-CEM
SK-MEL-28 = tested on: SK-MEL-28
SK-MEL-2 = tested on: SK-MEL-2
A498 = tested on: A498
DU-145 = tested on: DU-145
BT-549 = tested on: BT-549
SF-295 = tested on: SF-295
HT-29 = tested on: HT-29
OVCAR-3 = tested on: OVCAR-3
M14 = tested on: M14
LOX IMVI = tested on: LOX IMVI
PC-3 = tested on: PC-3
RXF 393 = tested on: RXF 393
SK-MEL-5 = tested on: SK-MEL-5
MDA-MB-435 = tested on: MDA-MB-435
SK-OV-3 = tested on: SK-OV-3
COLO 205 = tested on: COLO 205
SW-620 = tested on: SW-620
Malme-3M = tested on: Malme-3M
SR = tested on: SR
EKVX = tested on: EKVX
U-251 = tested on: U-251
786-0 = tested on: 786-0
OVCAR-5 = tested on: OVCAR-5
SNB-75 = tested on: SNB-75
HOP-92 = tested on: HOP-92

C[C@]12CCC3c4ccc(O)cc4CC[C@H]3C1CC(=O)N(CCN1CCCC1)C2=O (stereo not given in full)
GI50 (ACHN): > 10 µM (inactive) | GI50 (SN12C): > 10 µM (inactive) | GI50 (SF-268): > 10 µM (inactive) | GI50 (HCC 2998): > 10 µM (inactive) | GI50 (CAKI-1): > 10 µM (inactive) | GI50 (HOP-62): > 10 µM (inactive) | GI50 (NCI/ADR-RES): > 10 µM (inactive) | GI50 (K562): > 10 µM (inactive) | GI50 (UACC-62): > 10 µM (inactive) | GI50 (UACC-257): > 10 µM (inactive) | GI50 (NCI-H460): > 10 µM (inactive) | GI50 (TK-10): > 10 µM (inactive) | GI50 (RPMI-8226): > 10 µM (inactive) | GI50 (MDA-MB-231): > 10 µM (inactive) | GI50 (Hs-578T): > 10 µM (inactive) | GI50 (A549): > 10 µM (inactive) | GI50 (KM12): > 10 µM (inactive) | GI50 (NCI-H23): > 10 µM (inactive) | GI50 (IGROV-1): > 10 µM (inactive) | GI50 (MCF7): > 10 µM (inactive) | GI50 (MOLT-4): > 10 µM (inactive) | GI50 (HL-60): > 10 µM (inactive) | GI50 (OVCAR-4): > 10 µM (inactive) | GI50 (T47D): > 10 µM (inactive) | GI50 (UO-31): > 10 µM (inactive) | GI50 (HCT-15): > 10 µM | GI50 (HCT-116): > 10 µM (inactive) | GI50 (SF-539): > 10 µM (inactive) | GI50 (SNB-19): > 10 µM (inactive) | GI50 (NCI-H226): > 10 µM (inactive) | GI50 (MDA-N): > 10 µM (inactive) | GI50 (OVCAR-8): > 10 µM (inactive) | GI50 (CCRF-CEM): > 10 µM (inactive) | GI50 (SK-MEL-28): > 10 µM (inactive) | GI50 (SK-MEL-2): > 10 µM (inactive) | GI50 (A498): > 10 µM (inactive) | GI50 (DU-145): > 10 µM (inactive) | GI50 (BT-549): > 10 µM (inactive) | GI50 (SF-295): > 10 µM (inactive) | GI50 (HT-29): > 10 µM (inactive) | GI50 (OVCAR-3): > 10 µM (inactive) | GI50 (M14): > 10 µM (inactive) | GI50 (LOX IMVI): > 10 µM (inactive) | GI50 (PC-3): > 10 µM (inactive) | GI50 (RXF 393): > 10 µM (inactive) | GI50 (SK-MEL-5): > 10 µM (inactive) | GI50 (MDA-MB-435): > 10 µM (inactive) | GI50 (SK-OV-3): > 10 µM (inactive) | GI50 (COLO 205): > 10 µM (inactive) | GI50 (SW-620): > 10 µM (inactive) | GI50 (Malme-3M): > 10 µM (inactive) | GI50 (SR): > 10 µM (inactive) | GI50 (EKVX): > 10 µM (inactive) | GI50 (U-251): > 10 µM (inactive) | GI50 (786-0): > 10 µM (inactive) | GI50 (OVCAR-5): > 10 µM (inactive) | GI50 (SNB-75): 7.96 µM (inactive)

COC(=O)C1Cc2cc3c(cc2C1)CCC3
GI50 (ACHN): > 100 µM (inactive) | GI50 (HOP-92): 34 µM (inactive) | GI50 (SN12C): > 100 µM (inactive) | GI50 (SF-268): > 100 µM (inactive) | GI50 (HCC 2998): > 100 µM (inactive) | GI50 (CAKI-1): > 100 µM (inactive) | GI50 (HOP-62): > 100 µM (inactive) | GI50 (NCI/ADR-RES): > 100 µM (inactive) | GI50 (K562): > 100 µM (inactive) | GI50 (UACC-62): > 100 µM (inactive) | GI50 (UACC-257): > 100 µM (inactive) | GI50 (NCI-H460): > 100 µM (inactive) | GI50 (TK-10): 3.65 µM (inactive) | GI50 (RPMI-8226): > 100 µM (inactive) | GI50 (MDA-MB-231): > 100 µM (inactive) | GI50 (Hs-578T): > 100 µM (inactive) | GI50 (A549): > 100 µM (inactive) | GI50 (KM12): > 100 µM (inactive) | GI50 (NCI-H23): > 100 µM (inactive) | GI50 (IGROV-1): > 100 µM (inactive) | GI50 (MCF7): > 100 µM (inactive) | GI50 (MOLT-4): > 100 µM (inactive) | GI50 (HL-60): > 100 µM (inactive) | GI50 (OVCAR-4): > 100 µM (inactive) | GI50 (T47D): > 100 µM (inactive) | GI50 (UO-31): > 100 µM (inactive) | GI50 (HCT-15): > 100 µM | GI50 (HCT-116): > 100 µM (inactive) | GI50 (SF-539): > 100 µM (inactive) | GI50 (SNB-19): > 100 µM (inactive) | GI50 (NCI-H226): > 100 µM (inactive) | GI50 (MDA-N): > 100 µM (inactive) | GI50 (OVCAR-8): > 100 µM (inactive) | GI50 (CCRF-CEM): > 100 µM (inactive) | GI50 (SK-MEL-28): > 100 µM (inactive) | GI50 (SK-MEL-2): > 100 µM (inactive) | GI50 (A498): > 100 µM (inactive) | GI50 (DU-145): > 100 µM (inactive) | GI50 (BT-549): > 100 µM (inactive) | GI50 (SF-295): > 100 µM (inactive) | GI50 (HT-29): 68.9 µM (inactive) | GI50 (OVCAR-3): > 100 µM (inactive) | GI50 (M14): > 100 µM (inactive) | GI50 (LOX IMVI): > 100 µM (inactive) | GI50 (PC-3): > 100 µM (inactive) | GI50 (RXF 393): > 100 µM (inactive) | GI50 (SK-MEL-5): > 100 µM (inactive) | GI50 (MDA-MB-435): > 100 µM (inactive) | GI50 (SK-OV-3): > 100 µM (inactive) | GI50 (COLO 205): > 100 µM (inactive) | GI50 (SW-620): > 100 µM (inactive) | GI50 (Malme-3M): > 100 µM (inactive) | GI50 (SR): > 100 µM (inactive) | GI50 (EKVX): > 100 µM (inactive) | GI50 (U-251): > 100 µM (inactive) | GI50 (786-0): > 100 µM (inactive) | GI50 (OVCAR-5): > 100 µM (inactive) | GI50 (SNB-75): > 100 µM (inactive)
